# In patent US20160299147A1, “SCREENING, DIAGNOSIS, PROGNOSTICATION AND TREATMENT OF OVARIAN CANCER” (AFG TECHNOLOGIES S.À.R.L., priority 2013, published 2016):
# What was measured:
# Assay type in all cases: cell-based
# Ovcar-3 cells [1] = experiment: Mitotic phase distribution analysis (H3S10ph immunostaining) in Ovcar-3 cells; conditions: 100 ng/ml IGF-1 for 48 hrs, vs untreated, p=0.055
# Caov-3 cells [2] = experiment: XTT viability assay in Caov-3 cells
# Procedure: Caov-3 or Ovcar-3 cells were plated at a density of 1×10^4 cells per well into a 96-well tissue culture plate. The cell number was determined using the Countess™ automated cell counter (Life Technologies). Where indicated paclitaxel and IGF-1 were added. The final volume of the tissue culture medium was 0.1 ml. Prior to the experiment for each 96 well plate, 5 ml XTT solution and 0.1 ml activation reagent (New England Biolabs; Cat. No. 9095S) were mixed. 50 μl of the activated solution was added to each well and incubated at 37° C. for 4 hrs. The plates were shaken gently to evenly distribute the dye in the wells. After the 4 hrs incubation the absorbance of the samples was measured using a Spectramax M5e plate reader (Molecular Devices; Mod. No. M5e) at a wavelength of 450 nm.
# Ovcar-3 cells [3] = experiment: Invasion assay (Matrigel Boyden chamber) in Ovcar-3 cells; conditions: 100 ng/ml IGF-1, vs untreated, n=2
# Procedure: FBS (10%) mediated cell migration through an extracellular matrix was measured by Boyden chamber assay [(BD Biocoat™ Matrigel invasion chamber) BD Biosciences; Cat. No. 354480)] following the manufacturer's instructions. Briefly, Caov-3 cells were transfected with PAPPA siRNA or control siRNA (negative control) as described above. Caov-3 cells were treated with IGFR blocking antibody or untreated as described previously. Ovcar-3 cells were treated with IGF-1 or untreated as described previously. Prior to transfections or treatments the cells were serum starved for 24 hrs. Caov-3 cells were collected in DMEM medium containing 5% BSA, counted and 0.5×10^5 cells were added to each invasion assay chamber. Ovcar-3 cells were collected in RPMI medium containing 5% BSA, counted and 2×10^5 cells were added to each invasion assay chamber. After incubation for 48 hrs the invasion chamber inserts were washed with PBS, fixed in 4% formaldehyde for 5 min, stained with 0.01% crystal violet or haematoxylin and cells from random areas on the filters were counted.
# Ovcar-3 cells [4] = experiment: XTT viability assay in Ovcar-3 cells; conditions: 25 nM paclitaxel for 24 hrs (5x the concentration used in Caov-3)
# Procedure: Caov-3 cells (ATCC® HTB-75™) were cultured in DMEM (Life Technologies; Cat. No. 31966-021) supplemented with 10% FBS (Life Technologies; Lot #41Q822OK) and GlutaMAX™ (Life Technologies; Cat. No. 35050-038). Ovcar-3 cells (ATCC® HTB-161™) were cultured in RPMI 1640 (LGC Standards; Cat. No. 30-2001) supplemented with 20% FBS (Life Technologies) and 10 μg/ml bovine insulin (Sigma Aldrich, Cat. No. 10516). Cells were cultured at 37° C. with 5% CO2 and ≧95% humidity. Cells were harvested following incubation with TrypLE™ Express (Life Technologies; Cat. No. 126005-010). Cell density and viability were determined by trypan blue exclusion using a Countess® Automated Cell Counter (Life Technologies; Mod No. C10281). […] Where indicated, Caov-3 cells were treated with 100 ng/ml IGFR blocking antibody (Millipore; Lot #30080) for 24 hrs, 100 ng/ml IGF-1 (Life Technologies; Lot #73159414A) for 48 hrs or 5 nM paclitaxel (Taxol® Sigma Aldrich; Lot #091M1781V) for 24 hrs. Ovcar-3 cells, where indicated, were treated with 100 ng/ml IGF-1 for 48 hrs or 25 nM paclitaxel for 24 hrs. […] The cell number was determined using the Countess™ automated cell counter (Life Technologies). […] After the 4 hrs incubation the absorbance of the samples was measured using a Spectramax M5e plate reader (Molecular Devices; Mod. No. M5e) at a wavelength of 450 nm.
# Caov-3 cells [5] = experiment: Apoptotic DNA ladder detection in Caov-3 cells; conditions: 5 nM paclitaxel for 24 hrs
# Procedure: Caov-3 cells (ATCC® HTB-75TM) were cultured in DMEM (Life Technologies; Cat. No. 31966-021) supplemented with 10% FBS (Life Technologies; Lot #41Q822OK) and GlutaMAXTM (Life Technologies; Cat. No. 35050-038). […] Cells were cultured at 37° C. with 5% CO2 and ≧95% humidity. Cells were harvested following incubation with TrypLETM Express (Life Technologies; Cat. No. 126005-010). Cell density and viability were determined by trypan blue exclusion using a Countess® Automated Cell Counter (Life Technologies; Mod No. C10281). […] Where indicated, Caov-3 cells were treated with 100 ng/ml IGFR blocking antibody (Millipore; Lot #30080) for 24 hrs, 100 ng/ml IGF-1 (Life Technologies; Lot #73159414A) for 48 hrs or 5 nM paclitaxel (Taxol® Sigma Aldrich; Lot #091M1781V) for 24 hrs. Ovcar-3 cells, where indicated, were treated with 100 ng/ml IGF-1 for 48 hrs or 25 nM paclitaxel for 24 hrs. Caov-3 or Ovcar-3 cells were plated into [MUT]^2 culture flasks in a volume of 25 ml. The cells were seeded at 1×10^6 cells per flask as determined using the CountessTM automated cell counter (Life Technologies). Where indicated paclitaxel, IGF-1, or IGF-1+paclitaxel were added. […] DNA was resuspended in 30 μl nuclease-free water (Ambion; Cat. No. AM9937) and was quantified using a NanoVue Plus Spectrophotometer (GE Healthcare). […]
Compound,mitotic delay (mitotic cells in prophase/prometaphase) (Ovcar-3 cells [1]),"cell viability (XTT assay) (Caov-3 cells [2]; 100 ng/ml IGF-1 for 48 hrs, added alone)","invasiveness (number of invading cells, Boyden chamber assay) (Ovcar-3 cells [3])","response to paclitaxel treatment (morphology, XTT viability, apoptosis) (Ovcar-3 cells [4])",apoptosis (DNA apoptosis kit) (Caov-3 cells [5]),cell viability (XTT assay) (Caov-3 cells [2]; 5 nM paclitaxel for 24 hrs)
"IGF-1: insulin-like growth factor-1, recombinant, exogenously added (Life Technologies); IGF-1 receptor agonist",decrease,no effect,reduced,,,
CC(=O)O[C@H]1C(=O)[C@@]2(C)[C@H]([C@H](OC(=O)c3ccccc3)[C@]3(O)C[C@H](OC(=O)[C@H](O)[C@@H](NC(=O)c4ccccc4)c4ccccc4)C(C)=C1C3(C)C)[C@]1(OC(C)=O)CO[C@@H]1C[C@@H]2O [paclitaxel],,,,not responding,induction of apoptosis,decreased
